Experiments:
Format in all cases: physicochemical
[1] = Dissolution amount of compound A in saturated organic acid; settings: room temperature, shaken 1 hr
Procedure: Citric acid, succinic acid, fumaric acid or malic acid was dissolved and saturated in the Japanese Pharmacopoeia dissolution test 2nd fluid (JP2), and filtered. Successively, compound A (0.4 g) was added to a filtrate (10 mL) saturated with an organic acid and the mixture was shaken at room temperature for 1 hr. The solution after shaking was filtered, diluted 50-fold with the Japanese Pharmacopoeia dissolution test 2nd fluid, and the diluted solution was diluted 20-fold with the Japanese Pharmacopoeia dissolution test 2nd fluid. The solution obtained by diluting twice was subjected to HPLC measurement and the dissolution amount of compound A was measured.

[2] = Influence of concentration of fumaric acid or monosodium fumarate on dissolution amount of compound A (common ion effect); settings: JP2 with various concentrations of fumaric acid or monosodium fumarate, room temperature, 1 hr; FIG. 11
Procedure: Solutions containing various concentrations of fumaric acid or monosodium fumarate dissolved in the Japanese Pharmacopoeia dissolution test 2nd fluid were prepared. Then, 50 mg of compound A was measured and charged in a 10 mL plastic tube and each of the above-mentioned solution (5 mL) was added and the mixture was vigorously shaken at room temperature for 1 hr. The suspension after shaking was filtered, diluted 100-fold and subjected to HPLC measurement. The dissolution amount of compound A was measured.

[3] = Dissolution profile of compound A, fumaric acid, succinic acid (Rotating Basket 100 rpm); settings: water-insoluble polymer coated particle of Example 1 or coagulation inhibiting substance coated particle of Reference Example 3, 60 mg compound A; FIG. 12-13
Procedure: The water-insoluble polymer coated particle of Example 1 or the coagulation inhibiting substance coated particle of Reference Example 3, each of which contained 60 mg of compound A, was subjected to a dissolution test using Rotating Basket at 100 rpm and in the same manner as in Experimental Example 1. The dissolution amounts of fumaric acid or succinic acid as well as compound A were also measured. As for fumaric acid and succinic acid, the residual rate of each organic acid in the particles were inversely calculated from the dissolution rate, and the value of the maximum dissolution amount was normalized assuming 0% of the residual rate.

[4] = Confirmation of dissolution control mechanism-1 (dissolution test, paddle 100 rpm); settings: water-soluble polymer coated particle 3 of Reference Example 2, FIG. 14
Procedure: The water-soluble polymer coated particle 3 obtained in Reference Example 2 and containing 60 mg of compound A was subjected to a dissolution test using paddle at 100 rpm and in the same manner as in Experimental Example 1. The dissolution media was the Japanese Pharmacopoeia dissolution test 2nd fluid, the Japanese Pharmacopoeia dissolution test 2nd fluid added with 10% (W/W) sodium carbonate, the Japanese Pharmacopoeia dissolution test 2nd fluid added with 13% (W/W) succinic acid, or the Japanese Pharmacopoeia dissolution test 2nd fluid added with 0.6% (W/W) fumaric acid.

CNCc1cc(-c2ccccc2F)n(S(=O)(=O)c2cccnc2)c1.O=C(O)/C=C/C(=O)O [compound A, 1-[5-(2-Fluorophenyl)-1-(pyridin-3-ylsulfonyl)-1H-pyrrol-3-yl]-N-methylmethanamine monofumarate]
concentration (dissolution amount of compound A) ([1]; JP2, saturated organic acid: none): 5.22 µg·mL
concentration (dissolution amount of compound A) ([1]; JP2 saturated with citric acid): 26.30 µg·mL
concentration (dissolution amount of compound A) ([1]; JP2 saturated with fumaric acid, listed as Compound A, monofumarate): low concentration
concentration (dissolution amount of compound A) ([1]; JP2 saturated with fumaric acid, monofumarate): 0.67 µg·mL
concentration (dissolution amount of compound A) ([1]; JP2 saturated with malic acid): 26.64 µg·mL
dissolution amount of compound A [2]: influenced by the concentration of fumaric acid or monosodium fumarate
start of dissolution of compound A relative to organic acid [3]: started after dissolution of fumaric acid or succinic acid
dissolution of compound A ([4]; JP2 added with 10% (W/W) sodium carbonate): suppressed dissolution
dissolution of compound A ([4]; JP2 added with 13% (W/W) succinic acid or 0.6% (W/W) fumaric acid): did not show a dissolution suppressive action
